Key:
[1] = biological target: T1, Adenosine receptor A1 (Rattus norvegicus, UniProt P25099); experiment: Evaluated for the binding affinity towards the Adenosine A1 receptor in cerebral cortices of Sprague-Dawley male rats using [3H]CHA as radioligand.
T1 sequence (P25099 whole entry): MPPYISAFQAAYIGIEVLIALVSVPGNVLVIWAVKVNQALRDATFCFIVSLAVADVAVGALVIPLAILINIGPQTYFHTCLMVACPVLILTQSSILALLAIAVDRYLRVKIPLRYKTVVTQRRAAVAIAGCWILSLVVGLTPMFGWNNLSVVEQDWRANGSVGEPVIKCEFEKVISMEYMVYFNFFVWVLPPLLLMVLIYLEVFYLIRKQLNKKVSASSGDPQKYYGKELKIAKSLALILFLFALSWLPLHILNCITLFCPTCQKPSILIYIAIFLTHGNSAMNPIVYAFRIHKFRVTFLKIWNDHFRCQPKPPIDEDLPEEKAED

[2] = species: Rattus norvegicus; experiment: Minimal effective dose in an rat anti-immobility effect using behavioral despair test; format: functional; settings: read-out: MED
[3] = biological target: T1, Adenosine receptor A1; experiment: Binding affinity towards the adenosine A1 receptor in cerebral cortices of Sprague-Dawley male rats using [3H]CHA as radioligand.
[4] = biological target: Adenosine A2 receptor (Rattus norvegicus, UniProt P29276+P30543)
[5] = biological target: Phosphodiesterase 1 (Rattus norvegicus, UniProt Q63421+Q9EPR9+Q01066); experiment: Evaluated for Ca++ dependent phosphodiesterase activity.; format: functional
[6] = species: Rattus norvegicus; experiment: Evaluated for Ca++ independent phosphodiesterase activity.; format: functional

Structure (SMILES)	IC50 [1]	minimal effective dose [2]	IC50 [3]	IC50 [4]	IC50 [5]	IC50 [6]
CC(C)Nc1ncnc2c1ncn2[C@@H]1O[C@H](CO)[C@@H](O)[C@H]1O	3.7 µM					
CC(C)Nc1nc2ccccc2n2cnnc12		3.2 mg/kg	4100 nM	17 µM		
CC(C)Nc1nc2ccc(Cl)cc2n2c(-c3ccccc3)nnc12		< 32 mg/kg	3200 nM	> 100 µM	> 10 µM	> 10 µM
Nc1nc2ccc(Cl)cc2n2c(-c3ccccc3)nnc12		> 32 mg/kg	270 nM	0.021 µM		
CCc1nnc2c(N3CCCC3)nc3ccccc3n12		> 3.2 mg/kg	10000 nM			
CCN(CC)c1nc2ccc(Cl)cc2n2c(C(F)(F)F)nnc12		≤ 32 mg/kg	> 100000 nM	> 100 µM		
CCc1nnc2c(NC(C)C)nc3cc(F)ccc3n12		≥ 32 mg/kg	440 nM	48 µM		
Fc1ccc2nc(NC3CCCCC3)c3nnc(C(F)(F)F)n3c2c1		> 32 mg/kg	32 nM	60 µM	> 10 µM	6 µM
CC(C)Nc1nc2ccccc2n2c(C(F)(F)F)nnc12		< 10 mg/kg	170 nM	4.1 µM		
Nc1nc2ccc(Cl)cc2n2c(C(F)(F)F)nnc12		3.2 mg/kg	65 nM	0.044 µM	> 10 µM	2 µM
CCc1nnc2c(NC(C)C)nc3c(Cl)cccc3n12		≤ 32 mg/kg	6800 nM	> 100 µM	>> 10 uM	> 10 µM
CC(C)Nc1nc2ccc(F)cc2n2cnnc12		≤ 3.2 mg/kg	680 nM	6.9 µM	> 100 µM	4.5 µM
CCCN(CCC)c1nc2ccc(F)cc2n2c(C(F)(F)F)nnc12		> 32 mg/kg			>> 10 uM	> 10 µM
CCc1nnc2c(N(CC)CC)nc3ccccc3n12		3.2 mg/kg	7400 nM		0.1 µM	3.7 µM
CCc1nnc2c(NC(C)C)nc3cc(Cl)c(Cl)cc3n12		≤ 32 mg/kg	110 nM	3.2 µM		
Nc1nc2ccc(F)cc2n2c(C(F)(F)F)nnc12		1 mg/kg	290 nM	0.1 µM		
CC(C)Nc1nc2ccc(Cl)cc2n2c(C(F)(F)F)nnc12		≤ 3.2 mg/kg	24 nM	2.3 µM	1 µM	1 µM
CCc1nnc2c(N)nc3cc(Cl)c(Cl)cc3n12		3.2 mg/kg	110 nM	0.023 µM		
COc1ccc2c(c1)nc(N)c1nncn12		3.2 mg/kg	1400 nM	0.1 µM	>> 10 uM	> 10 µM
CC(C)Nc1nc2ccc(Cl)cc2n2c(C(F)(F)C(F)(F)F)nnc12		32 mg/kg	24 nM	3.1 µM		
CCNc1nc2ccc(F)cc2n2c(C(F)(F)F)nnc12		3.2 mg/kg	230 nM	14 µM		

Structure (SMILES)	IC50 [1]	minimal effective dose [2]	IC50 [3]	IC50 [4]	IC50 [5]	IC50 [6]
CCNc1nc2cc(Cl)ccc2n2c(CC)nnc12		3.2 mg/kg			> 10 µM	0.2 µM
CCc1nnc2c(N)nc3cc(OC)ccc3n12		> 32 mg/kg	140 nM	0.036 µM		
CC(C)Nc1nc2ccc(F)cc2n2c(C(F)(F)F)nnc12		≤ 3.2 mg/kg	57 nM	3.9 µM	24 µM	0.37 µM
CCc1nnc2c(NC(C)C)nc3ccccc3n12		10 mg/kg	660 nM	6.4 µM	3 µM	0.3 µM
CCNc1nc2cc(F)ccc2n2cnnc12		32 mg/kg	11000 nM	26 µM		
CCN(CC)c1nc2ccccc2n2cnnc12		10 mg/kg	27000 nM	42 µM	1.2 µM	3 µM
CC(C)Nc1nc2ccc(F)cc2n2c(O)nnc12		> 32 mg/kg	730 nM	3.5 µM		
CCNc1nc2ccc(F)cc2n2cnnc12		3.2 mg/kg	3200 nM	17 µM		
CC(C)Nc1nc2ccc(Cl)cc2n2cnnc12		3.2 mg/kg	370 nM	3.3 µM		
Clc1ccc2nc(N3CCNCC3)c3nnc(-c4ccccc4)n3c2c1		> 32 mg/kg			>> 10 uM	10 µM
CCc1nnc2c(N)nc3cc(F)ccc3n12		3.2 mg/kg	580 nM	0.17 µM	>> 10 uM	40 µM
CCc1nnc2c(N)nc3ccc(Cl)cc3n12		≤ 3.2 mg/kg	110 nM	0.028 µM		
CCc1nnc2c(N)nc3ccccc3n12		3.2 mg/kg	430 nM	0.062 µM	2 µM	12 µM
CCc1nnc2c(NC(C)C)nc3ccc(Cl)cc3n12		≤ 3.2 mg/kg	60 nM	1.7 µM	2 µM	0.5 µM
Nc1nc2cc(Cl)ccc2n2cnnc12		≤ 32 mg/kg	1200 nM	0.21 µM		
CC(C)Nc1nc2cc(F)ccc2n2cnnc12		> 32 mg/kg	4500 nM	13 µM	> 100 µM	6 µM
CCc1nnc2c(NC3CCCC3)nc3ccc(Cl)cc3n12		> 32 mg/kg	20 nM	0.89 µM		
CCc1nnc2c(NCCO)nc3ccccc3n12		≤ 32 mg/kg	1600 nM			
Oc1cccc(C2=CSC3=Nc4ccccc4CN23)c1			18000 nM	0.53 µM		
FC(F)(F)c1nnc2c(NC3CCCC3)nc3ccc(Cl)cc3n12		> 32 mg/kg	5.5 nM	2.1 µM		
Nc1nc2ccccc2n2cnnc12		3.2 mg/kg	4600 nM	0.4 µM		

Structure (SMILES)	IC50 [1]	minimal effective dose [2]	IC50 [3]	IC50 [4]	IC50 [5]	IC50 [6]
CCc1nnc2c(NC(C)C)nc3cc(F)c(F)cc3n12		≤ 32 mg/kg	280 nM	6.4 µM		
CCc1nnc2c(NC(C)C)nc3ccc(F)cc3n12		3.2 mg/kg	180 nM	3.9 µM		
Nc1nc2ccc(F)cc2n2cnnc12		≤ 32 mg/kg	2900 nM	1 µM	> 10 µM	4 µM
CCc1nnc2c(N[C@@H](C)Cc3ccccc3)nc3ccc(Cl)cc3n12		> 32 mg/kg	680 nM	> 100 µM		
CCNc1nc2ccccc2n2cnnc12		3.2 mg/kg	29000 nM	110 µM		
c1ccc2c(c1)nc(N1CCNCC1)c1nncn12		> 32 mg/kg	> 10000 nM		3 µM	7 µM
CCc1nnc2c(Nc3ccccc3)nc3ccc(Cl)cc3n12		> 32 mg/kg	380 nM	> 100 µM		
CCc1nnc2c(N)nc3cc(Cl)ccc3n12		≤ 3.2 mg/kg	75 nM	0.029 µM		
CCNc1nc2ccccc2n2c(CC)nnc12		3.2 mg/kg	1800 nM	9.5 µM	20 µM	2.5 µM
FC(F)(F)c1nnc2c(NC3CCCCC3)nc3ccc(Cl)cc3n12		> 32 mg/kg	28 nM	> 100 µM	> 10 µM	> 10 µM
COc1nnc2c(NC(C)C)nc3ccc(F)cc3n12		≤ 32 mg/kg	160 nM	6.5 µM		
Nc1nc2ccc(F)cc2n2c(O)nnc12		10 mg/kg	840 nM	0.7 µM		
Nc1nc2ccc(Cl)cc2n2cnnc12		10 mg/kg	3400 nM	>= 1 uM		
CCc1nnc2c(NC3CCCCC3)nc3ccc(Cl)cc3n12		> 32 mg/kg	44 nM	4.1 µM		
Nc1nc2cc(F)ccc2n2cnnc12		≤ 32 mg/kg	6100 nM	0.56 µM		
CCNc1nc2ccc(OC)cc2n2c(CC)nnc12		> 32 mg/kg	710 nM	4.5 µM		
Cn1c(=O)c2c(ncn2C)n(C)c1=O [CAFFEINE]		3.2 mg/kg			70 µM	170 µM
Nc1nc2ccc(Cl)cc2c2nc(-c3ccco3)nn12 [CGS-15943]		< 32 mg/kg		0.0028 µM		
CC(C)Cn1c(=O)n(C)c(=O)c2nc[nH]c21 [ISOBUTYLMETHYLXANTHINE]		> 32 mg/kg	7000 nM	13 µM	0.1 µM	3.5 µM
COc1ccc(C2CNC(=O)C2)cc1OC1CCCC1 (stereo not given) [ROLIPRAM]		> 32 mg/kg	> 100000 nM	> 100 µM	> 100 µM	0.25 µM
